This is an account of results in US7928096B2, “Polydiazeniumdiolated cyclic polyamines with polyphasic nitric oxide release and related compounds, compositions comprising same and methods of using same” (The United States of America, as represented by the …, priority 2002, dated 2011).

Data set [1] can be described thus: NO release rate by UV spectrophotometry (decrease in 250-252 nm absorbance). It is filed as physicochemical. The settings on record: phosphate buffer, pH 7.4, pH 7.4 phosphate buffer (0.1 M), 37° C., 50 to 100 μM. An excerpt: The invention provides a cyclic polyamine compound comprising at least three amino groups, wherein at least two of the amino groups are covalently bound to a nitrogen oxide-releasing group of the formula N2O2M, in which M is a pharmaceutically acceptable cation. The invention also provides a compound that has a polyphasic release of nitric oxide, wherein any subsequent release of nitric oxide has a rate that is at least about 3 times smaller than an initial rate of nitric oxide release. The rate of NO release can be determined by any suitable method. For example, the rate of NO release can be measured by the decrease in 250-252 nm absorbance over time at 37° C. as previously described by Keefer et al., “NONOates” (1-Substituted Diazen-1-ium-1,2-diolates) as Nitric Oxide Donors: Convenient Nitric Oxide Dosage Forms. Methods in Enzymology, 1996, 268, 281-293.
(§1) The total moles of NO released were determined by chemiluminescence as previously described in Hrabie et al. (New Nitric Oxide Releasing Zwitterions Derived from Polyamines. J. Org. Chem., 1993, 58, 1472-1476). The NO release rates for the compounds prepared in Example 1 and Example 2 were determined by UV spectrophotometry by adding a stock solution of the compound in 0.01 M NaOH to pH 7.4 phosphate buffer (0.1 M) contained in a standard UV cell to generate final solutions at concentrations in the range of 50 to 100 μM. The rate of NO release was determined by the decrease in 250-252 nm absorbance over time at 37° C. as previously described by Keefer et al. (“NONOates” (1-Substituted Diazen-1-ium-1,2-diolates) as Nitric Oxide Donors: Convenient Nitric Oxide Dosage Forms. Methods in Enzymology, 1996, 268, 281-293). The results of the NO release of piperazine bisdiazeniumdiolate as discussed in Hrabie et al. (Organic Preparations and Procedures International, 1999, 31(2), 189-192) are included as a comparative example.

Data set [2] can be described thus: Total moles of NO released by chemiluminescence. Format: physicochemical. As to conditions: for Moles of NO released: chemiluminescence; for Ideal moles of NO released: theoretical (ideal) amount. How it is done:
as §1

Data set [3] can be described thus: NO release monitored by chemiluminescence of effluent gas stream treated with ozone. The settings on record: pH 7.4 phosphate buffer at 37° C.
Experimental: The diazeniumdiolated compound described in Example 4 was dissolved in pH 7.4 phosphate buffer at 37° C., and the release of NO was monitored by detection of the chemiluminescence generated by treatment of the effluent gas steam with ozone.
The diazeniumdiolated compound described in Example 5 was dissolved in pH 7.4 phosphate buffer at 37° C., and the release of NO was monitored by detection of the chemiluminescence generated by treatment of the effluent gas steam with ozone.
The diazeniumdiolated compound described in Example 6 was dissolved in pH 7.4 phosphate buffer at 37° C., and the release of NO was monitored by detection of the chemiluminescence generated by treatment of the effluent gas steam with ozone.
The diazeniumdiolated compound described in Example 7 was dissolved in pH 7.4 phosphate buffer at 37° C., and the release of NO was monitored by detection of the chemiluminescence generated by treatment of the effluent gas steam with ozone.
The diazeniumdiolated compound described in Example 9 was dissolved in pH 7.4 phosphate buffer at 37° C., and the release of NO was monitored by detection of the chemiluminescence generated by treatment of the effluent gas steam with ozone.
The conditions of data set [4]: comparative example from Hrabie et al. 1999; cited from earlier work.
Where [5] appears, read: read-out: t1/2 of initial phase.
[6] abbreviates: read-out: t1/2 of second phase (converted).

Where two headings read alike, the source gives them in different places.

In the case of `[Na+].[Na+].[O-]/N=[N+](\[O-])N1CCCN(/[N+]([O-])=N/[O-])CCNCCCNCC1` [Example 1, 1,4,8,11-tetraazacyclotetradecane-1,11-bisdiazeniumdiolate], the melting point fell in the range of 181 to 182 °C. Also, the half-life in data set [1] (setting [5]) is 0.0283 h. Further, the half-life in data set [1] (setting [6]) is 8.9 h. In data set [2], the “Moles of NO released” value was determined as 3.3 mol and the “Ideal moles of NO released” value stood at 4 mol.

In the case of `[Na+].[Na+].[O-]/N=[N+](\[O-])N1CCNCCNCCN(/[N+]([O-])=N/[O-])CC1` [Example 2, 1,4,7,10-tetraazacyclododecane-1,4-bisdiazeniumdiolate], the melting point is 183 to 185 °C (dec.). Also, the half-life in data set [1] (setting [5]) was 0.0283 h. Further, the half-life in data set [1] (setting [6]) is 8.8 h. Further, in data set [2], the “Moles of NO released” value stood at 3.3 mol and the “Ideal moles of NO released” value was found to be 4 mol.

As to `O=NN([O-])N1CCN2CCN(CCN(N([O-])N=O)CC1)C(=O)C2=O.[Na+].[Na+]` [Example 6, 1,4-bis(diazeniumdiolated)-1,4,7,10-tetraazabicyclo[8.2.2]tetradecane-11,12-dione, disodium salt], in data set [3], the “biphasic release of NO, first rate of release” value is 1.0 min and the “biphasic release of NO, second rate of release” value was found to be 41.5 min.

`CCOC(=O)N1CCN(/[N+]([O-])=N/[O-])CCN(C(=O)OCC)CCN(/[N+]([O-])=N/[O-])CC1.[Na+].[Na+]` [Example 7, 1,7-diazeniumdiolated-4,10-bis(ethoxycarbonyl)-1,4,7,10-tetraazacyclododecane, disodium salt]: in data set [3], the “biphasic release of NO, first rate of release” value is 0.36 min and the “biphasic release of NO, second rate of release” value is recorded as 60.9 min.

Take `O=C1C(=O)N2CCCN([N+]([O-])=N[O-])CCN([N+]([O-])=N[O-])CCCN1CC2.[Na+].[Na+]` [Example 9, 1,4-bis(diazeniumdiolated)-1,5,8,12-tetraazabicyclo[10.2.2.]hexadecane-13,14-dione, disodium salt]: in data set [3], the “biphasic release of NO, first rate of release” value amounted to 1.1 min and the “biphasic release of NO, second rate of release” value is 161 min.

Regarding “piperazine bisdiazeniumdiolate [reference compound]”, in data set [4], the “Moles of NO released” value is 4.3 mol. Besides, the “Ideal moles of NO released” value in data set [2] was determined as 4 mol.
